{
  "source": "patent US20110150836A1",
  "about": "“METHODS OF TREATING HBV AND HCV INFECTION” (Gilead Sciences, Inc., priority 2009, published 2011)",
  "key": {"[1]": {"test_system": "human peripheral blood mononuclear cells (PBMCs)", "experiment": "Induction of cytokines in human PBMCs in vitro (Luminex/Upstate multi-plex)", "type": "cell-based", "conditions": "24 hours; for IFN-α concentration / IFN-β concentration / IFN-γ concentration / IL1-α concentration / IL1-β concentration / IL-1ra concentration / IL-6 concentration / IL-10 concentration / IL-12 concentration / TNF-α concentration: PBMC supernatant", "protocol": "Frozen human PBMCs were thawed and used to seed the wells of 96 well plates (7.5×10^5cells/well in 190 μL/well culture medium (CM)). The cells were incubated for 1 hour at 37° C. at a 5% CO2. […] The plates were incubated at 37° C., 5% CO2, for 24 hours, then centrifuged at 1200 rpm for 10 minutes. After centrifugation the supernatant was collected and stored at −80° C. The supernatant was assayed using Luminex and Upstate multi-plex kits for the presence of various cytokines."}, "[2]": {"test_system": "Woodchuck Hepatitis Virus (WHV)", "experiment": "Seroconversion and antiviral activity in woodchucks chronically infected with WHV", "type": "in vivo, Eastern Woodchucks (Marmota monax)", "conditions": "chronic WHV carrier woodchucks, oral 0.5 mg/kg/day for 28 days", "protocol": "Compound A or placebo was administered orally to five woodchucks per group that were chronic carriers of woodchuck hepatitis virus (WHV). Compound A was administered at a dose of 0.5 mg/kg/day for 28 days. Blood samples were collected prior to dosing and multiple times during and after the 28 day dosing period. Antiviral activity of Compound A was assessed by comparing the serum WHV DNA of treated WHV carrier woodchucks with control WHV carrier woodchucks receiving vehicle. The ability of Compound A to cause seroconversion in chronically infected animals was assessed by comparing the serum antibody levels against the woodchuck hepatitis virus surface antigen (anti-WHsAg) in infected animals to the anti-WHsAg antibody levels in placebo treated animals.\nThe woodchucks used in this study were born to WHV-negative females and reared in environmentally controlled laboratory animal facilities. Woodchucks were inoculated at 3 days of age with 5 million woodchuck infectious doses of a standardized WHV inoculum (cWHV7P1 or WHV7P2). Woodchucks selected for use developed WHV surface antigen (WHsAg) serum antigenemia and became chronic WHV carriers. The chronic carrier status of these woodchucks was confirmed prior to initiation of drug treatment.\nSerum WHV DNA concentrations were measured before treatment, during treatment, and during the post-treatment follow-up period at frequent intervals. WHV viremia in serum samples was assessed by dot blot hybridization using three replicate volumes (10 μl) of undiluted serum (sensitivity, 1.0×10^7 WHV genome equivalents per ml [WHVge/ml]) compared with a standard dilution series of WHV recombinant DNA plasmid (pWHV8).\nLevels of Woodchuck Hepatitis Virus surface antigen (WHsAg) and antibodies to WHsAg (anti-WHs) were determined before treatment, during treatment, and during the post-treatment follow-up period at frequent intervals, using WHV-specific enzyme immunoassays.\nAntiviral activity of Compound A was assessed by comparing the serum WHV DNA and the hepatic WHV nucleic acids of treated WHV carrier woodchucks with control WHV carrier woodchucks receiving vehicle.\nImmune stimulatory activity of Compound A to cause seroconversion was assessed by comparing the serum levels of WHsAg and antibodies to WHsAg (anti-WHsAg)."}, "[3]": {"test_system": "serum cytokines", "experiment": "Induction of serum cytokines in mice (ELISA, Luminex/Milliplex)", "type": "in vivo, CD-1 mice", "conditions": "Day 1, 2 hours Post-dose", "protocol": "Compound A was dosed once per day for 14 days by oral gavage, at 0.5 mg/kg or 2.5 mg/kg, in CD-1 mice. Mouse serum samples were collected on day 1 and day 14, and serum cytokine levels were determined using the following method. The assay for interferon-a was done by ELISA (VeriKine™ Mouse Interferon Alpha (Mu-IFN-a) ELISA Kit, Product Number: 42100-1, PBL Biomedical Laboratories, New Brunswick, N.J.) and the other serum cytokines were assayed with Luminex and Milliplex bead kits. Cytokine levels were determined using a nonlinear five point parameter curve for interpolation of data using the fit=(A+((B−A)/(1+(((B−E)/(E−A))*((x/C)̂D))))). The results are shown in Table 4 where the cytokine concentrations are expressed in units of pg/mL."}, "[4]": {"test_system": "interferon-alpha", "experiment": "Induction of interferon alpha in cynomolgus monkeys, single oral dose (serum ELISA)", "type": "in vivo", "conditions": "serum at 4 and 8 hours", "protocol": "A single dose of Compound A was administered orally to cynomolgus monkeys (3 or more animals per dose group) and serum was collected at 4 hours and 8 hours after dosing. Serum samples were analyzed for levels of interferon-alpha by ELISA. Prior to dosing, serum interferon-alpha levels were near or below the level of detection in each animal. The limit of quantitation (LOQ) for IFN-a based on cynomolgus monkey IFN-a standard was 625 pg/mL."}},
  "data": [
    {"smiles": "CCCCOc1nc(N)c2nc(O)n(Cc3cccc(CN4CCCC4)c3)c2n1", "note": "[Compound A, 6-amino-2-butoxy-9-(3-(pyrrolidin-1-ylmethyl)benzyl)-9H-purin-8-ol]", "values": [
      {"measurement": "production of cytokines in human PBMCs in vitro", "setting": "[1]; 0.1, 0.01, 0.001 μM", "result": "stimulated the production of a range of cytokines"},
      {"measurement": "IFN-α concentration", "setting": "[1]; Compound A 0.001 μM", "result": 208, "unit": "pg/mL"},
      {"measurement": "IFN-β concentration", "setting": "[1]; Compound A 0.001 μM", "result": 324, "unit": "pg/mL"},
      {"measurement": "IFN-γ concentration", "setting": "[1]; Compound A 0.001 μM", "result": 2099, "unit": "pg/mL"},
      {"measurement": "IL1-α concentration", "setting": "[1]; Compound A 0.001 μM", "result": 7, "unit": "pg/mL"},
      {"measurement": "IL1-β concentration", "setting": "[1]; Compound A 0.001 μM", "result": 138, "unit": "pg/mL"},
      {"measurement": "IL-1ra concentration", "setting": "[1]; Compound A 0.001 μM", "result": 3216, "unit": "pg/mL"},
      {"measurement": "IL-6 concentration", "setting": "[1]; Compound A 0.001 μM", "result": 27664, "unit": "pg/mL"},
      {"measurement": "IL-10 concentration", "setting": "[1]; Compound A 0.001 μM", "result": 735, "unit": "pg/mL"},
      {"measurement": "IL-12 concentration", "setting": "[1]; Compound A 0.001 μM", "result": 61, "unit": "pg/mL"},
      {"measurement": "TNF-α concentration", "setting": "[1]; Compound A 0.001 μM", "result": 82, "unit": "pg/mL"},
      {"measurement": "IFN-α concentration", "setting": "[1]; Compound A 0.01 μM", "result": 122, "unit": "pg/mL"},
      {"measurement": "IFN-β concentration", "setting": "[1]; Compound A 0.01 μM", "result": 170, "unit": "pg/mL"},
      {"measurement": "IFN-γ concentration", "setting": "[1]; Compound A 0.01 μM", "result": 4578, "unit": "pg/mL"},
      {"measurement": "IL1-α concentration", "setting": "[1]; Compound A 0.01 μM", "result": 94, "unit": "pg/mL"},
      {"measurement": "IL1-β concentration", "setting": "[1]; Compound A 0.01 μM", "result": 752, "unit": "pg/mL"},
      {"measurement": "IL-1ra concentration", "setting": "[1]; Compound A 0.01 μM", "result": 4530, "unit": "pg/mL"},
      {"measurement": "IL-6 concentration", "setting": "[1]; Compound A 0.01 μM", "result": 66284, "unit": "pg/mL"},
      {"measurement": "IL-10 concentration", "setting": "[1]; Compound A 0.01 μM", "result": 992, "unit": "pg/mL"},
      {"measurement": "IL-12 concentration", "setting": "[1]; Compound A 0.01 μM", "result": 386, "unit": "pg/mL"},
      {"measurement": "TNF-α concentration", "setting": "[1]; Compound A 0.01 μM", "result": 1449, "unit": "pg/mL"},
      {"measurement": "IFN-α concentration", "setting": "[1]; Compound A 0.1 μM", "result": 80, "unit": "pg/mL"},
      {"measurement": "IFN-β concentration", "setting": "[1]; Compound A 0.1 μM", "result": 97, "unit": "pg/mL"},
      {"measurement": "IFN-γ concentration", "setting": "[1]; Compound A 0.1 μM", "result": 5400, "unit": "pg/mL"},
      {"measurement": "IL1-α concentration", "setting": "[1]; Compound A 0.1 μM", "result": 280, "unit": "pg/mL"},
      {"measurement": "IL1-β concentration", "setting": "[1]; Compound A 0.1 μM", "result": 2836, "unit": "pg/mL"},
      {"measurement": "IL-1ra concentration", "setting": "[1]; Compound A 0.1 μM", "result": 4934, "unit": "pg/mL"},
      {"measurement": "IL-6 concentration", "setting": "[1]; Compound A 0.1 μM", "result": 93554, "unit": "pg/mL"},
      {"measurement": "IL-10 concentration", "setting": "[1]; Compound A 0.1 μM", "result": 1523, "unit": "pg/mL"},
      {"measurement": "IL-12 concentration", "setting": "[1]; Compound A 0.1 μM", "result": 773, "unit": "pg/mL"},
      {"measurement": "TNF-α concentration", "setting": "[1]; Compound A 0.1 μM", "result": 3665, "unit": "pg/mL"},
      {"measurement": "serum WHV DNA concentrations", "setting": "[2]; FIG. 1", "result": "caused a substantial reduction in serum WHV DNA concentrations"},
      {"measurement": "antibodies against Woodchuck Hepatitis Virus Surface Antigen (anti-WHs)", "setting": "[2]; FIG. 2", "result": "stimulated production of antibodies against Woodchuck Hepatitis Virus Surface Antigen (WHsAg)"},
      {"measurement": "serum levels of WHsAg", "setting": "[2]; FIG. 3", "result": "caused a substantial reduction in serum levels of WHsAg"},
      {"measurement": "seroconversion against WHV", "setting": "[2]; FIGS. 1-3", "result": "induced seroconversion against WHV"},
      {"measurement": "Average Serum IFN-a Level ± Standard Deviation", "setting": "[3]; oral 0.5 mg/kg", "result": "296.3 ± 322.4", "unit": "pg/mL"},
      {"measurement": "Average Serum IL1-β Level ± Standard Deviation", "setting": "[3]; oral 0.5 mg/kg", "result": "4.8 ± 2.7", "unit": "pg/mL"},
      {"measurement": "Average Serum IL6 Level ± Standard Deviation", "setting": "[3]; oral 0.5 mg/kg", "result": "257.2 ± 420.9", "unit": "pg/mL"},
      {"measurement": "Average Serum IL12p40 Level ± Standard Deviation", "setting": "[3]; oral 0.5 mg/kg", "result": "3.2 ± 0", "unit": "pg/mL"},
      {"measurement": "Average Serum IL-10 Level ± Standard Deviation", "setting": "[3]; oral 0.5 mg/kg", "result": "3.2 ± 0", "unit": "pg/mL"},
      {"measurement": "Average Serum TNF-a Level ± Standard Deviation", "setting": "[3]; oral 0.5 mg/kg", "result": "41.7 ± 42.4", "unit": "pg/mL"},
      {"measurement": "Average Serum IFN-a Level ± Standard Deviation", "setting": "[3]; oral 2.5 mg/kg", "result": "1091.8 ± 413.6", "unit": "pg/mL"},
      {"measurement": "Average Serum IL1-β Level ± Standard Deviation", "setting": "[3]; oral 2.5 mg/kg", "result": "20.8 ± 16.1", "unit": "pg/mL"},
      {"measurement": "Average Serum IL6 Level ± Standard Deviation", "setting": "[3]; oral 2.5 mg/kg", "result": "6710.2 ± 3657.4", "unit": "pg/mL"},
      {"measurement": "Average Serum IL12p40 Level ± Standard Deviation", "setting": "[3]; oral 2.5 mg/kg", "result": "10 ± 11.7", "unit": "pg/mL"},
      {"measurement": "Average Serum IL-10 Level ± Standard Deviation", "setting": "[3]; oral 2.5 mg/kg", "result": "143.4 ± 102.7", "unit": "pg/mL"},
      {"measurement": "Average Serum TNF-a Level ± Standard Deviation", "setting": "[3]; oral 2.5 mg/kg", "result": "407.1 ± 258.1", "unit": "pg/mL"},
      {"measurement": "Average peak serum Interferon-alpha levels (Mean ± standard deviation)", "setting": "[4]; single oral dose 0.005 mg/kg", "result": "7829 ± 9192", "unit": "pg/mL"},
      {"measurement": "Average peak serum Interferon-alpha levels (Mean ± standard deviation)", "setting": "[4]; single oral dose 0.02 mg/kg", "result": "26148 ± 13873", "unit": "pg/mL"},
      {"measurement": "Average peak serum Interferon-alpha levels (Mean ± standard deviation)", "setting": "[4]; single oral dose 0.05 mg/kg", "result": "42741 ± 29223", "unit": "pg/mL"},
      {"measurement": "Average peak serum Interferon-alpha levels (Mean ± standard deviation)", "setting": "[4]; single oral dose 2.5 mg/kg", "result": "772923 ± 281529", "unit": "pg/mL"}
    ]}
  ]
}
